Like-named read-outs stand apart in the source and are kept apart here. Values belong to the molecule of their own block, whether it stands above or below them. Where no end group is shown, it is not given here. Eth = ethionine
What was measured:
[1] = test system: ATPTR2Ap; test: Uptake of L-leucyl-L-[3H]leucine and competition, PB1X-9B[pPTF4]; conditions: for competition for uptake of [3H]-dileucine: PB1X-9B[pPTF4], pH 5.5, dileucine and leucine at 100-fold; for uptake of radiolabeled dileucine: PB1X-9B transformed with pPTF4, compared with wild type, trifluoroacetic acid (TFA)
Procedure: The kinetics of ATPTR2A-mediated transport of peptides in yeast was evaluated by transforming pPTF4 into the S. cerevisiae peptide transport mutant, PB1X-9B and measuring the uptake of tritiated Leu-Leu dipeptide.
(§1) L-leucyl-L [^3 H]leucine trifluoroacetic acid (TFA) was synthesized by standard solution phase techniques (Naider, F. et al., J. Biol. Chem. 249:9-20 (1974)). Uptake of L-leucyl-L-[H]leucine was performed as by Island, M. D. et al (J. Bacteriol. 169:2132-2136 (1987)), with the following modifications. Cells were grown to late log phase (26×10^7 cells/ml) overnight in SC with 2% glucose, 1 mg/ml allantoin plus amino acids to supplement auxotrophic markers. To induce peptide transport. 5-15 ml from this culture was added to 100 ml fresh medium such that the density was 3.0×10^6 cells/ml. This culture was allowed to grow (approx. 2 hrs.) to a density of 6.0×10^6 cells/ml and then harvested by centrifugation. The pelleted cells were washed twice with 10 ml cold dH2 O and suspended in cold 2% glucose to a final concentration of 2×10^8 cells/ml and incubated at 30° C. for 15 min. 500 μl of cells were then added to an equal volume of reaction mixture (30° C.) and incubated at 30°-C. At 20, 40, 60, 90, and 120 sec. intervals, 190 μl portions were removed, filtered over filters (pore size, 0.45 μm; GN-6; Gelman Sciences, Inc., Ann Arbor, Mich.) and washed 2 times with 5 ml cold, sterile dH2 O and once with 5 ml dH2 O at room temperatures. Filters were placed in scintillation vials with 5 ml of Budget-Solve scintillation cocktail (Research Products International Corp., Mount Prospect, Ill.) and counted (liquid scintillation counter; LS-7000; Beckman Instruments, Inc., Fullerton, Calif.). The final concentration of the components in the uptake assay was 1% glucose, 40 mM sodium citrate-potassium phosphate buffer (pH 5.5), and 1.5×105 M L-leucyl-L-[^3 H]leucine (specific activity, 10 mCi/mmole). Uptake is expressed as nanomoles per mg dry weight.

[2] = target: T1, yeast peptide transport system (Saccharomyces cerevisiae, UniProt P32901); test: Competition for L-leucyl-L-[3H]leucine uptake, PB1X-9B[pJP9]; type: cell-based; conditions: pH 5.5
T1 construct: The ptr2 gene encodes a 602 amino acid hydrophobic polypeptide with 12 putative hydrophobic segments; expressed in transfected cells; host or cells: S. cerevisiae peptide transport mutant PB1X-9B (ptr2-2) transformed with pJP9
T1 sequence (P32901 1-601): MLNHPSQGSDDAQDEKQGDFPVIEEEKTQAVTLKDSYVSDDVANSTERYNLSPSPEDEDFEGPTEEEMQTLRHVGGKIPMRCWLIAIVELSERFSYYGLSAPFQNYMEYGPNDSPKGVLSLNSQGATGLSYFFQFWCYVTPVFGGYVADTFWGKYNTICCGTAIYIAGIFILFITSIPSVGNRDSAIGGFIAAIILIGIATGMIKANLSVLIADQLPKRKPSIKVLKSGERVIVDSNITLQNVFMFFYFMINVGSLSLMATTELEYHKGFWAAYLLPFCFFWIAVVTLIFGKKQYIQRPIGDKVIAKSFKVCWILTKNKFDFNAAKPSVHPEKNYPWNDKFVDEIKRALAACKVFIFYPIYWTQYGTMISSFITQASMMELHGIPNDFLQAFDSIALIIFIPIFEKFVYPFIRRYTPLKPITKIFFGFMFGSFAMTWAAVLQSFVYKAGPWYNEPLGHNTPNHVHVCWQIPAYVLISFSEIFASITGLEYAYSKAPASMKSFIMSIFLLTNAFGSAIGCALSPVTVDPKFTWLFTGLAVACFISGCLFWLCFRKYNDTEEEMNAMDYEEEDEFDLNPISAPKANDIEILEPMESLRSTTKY
Procedure: as §1

[3] = test system: A. thaliana seedlings; test: Root assay, toxic peptide plus competitor peptide; type: in vivo, Arabidopsis thaliana
Procedure: (§2) Approximately 15 A. thaliana seeds were placed in a row at one end of 10 cm plate containing 20 ml of Arabidopsis growth media (Kranz and Kirchheim 1987). The seeds were incubated 3-5 days in the light with the plate set in an upright position. When the roots were approximately 1-2 cm long, sterile paper filter disks were placed immediately in front of the root tips on the right and left side of the plate 2 cm from the edge of the plate. A line was drawn across the plate using the top of the disks as a guide marking zero growth. 5 μl of toxic amino acid analog, toxic peptide, or toxic peptide plus competitor was added to one disk while H2 O was place on the other disk. The plates were incubated for an additional 3-5 days. The average length of the roots was measured from the line and the results expressed as a percentage of control root growth.

[4] = test system: PB1X-9B; test: Toxic peptide disk assay, peptide transport mutant; type: cell-based, Saccharomyces cerevisiae
Procedure: (§3) Since ptr mutants are deficient in peptide transport, they are unable to take up toxic peptides. This inability renders such mutants resistant to the toxic effect of the peptides. In order to determine whether the polynucleotides of the present invention could restore toxic peptide sensitivity to ptr2 mutants, the sensitivity of plasmid-transformed cells was determined. Sensitivity to toxic amino acids and peptides was measured as described by Island, M. D. et al. (J. Bacteriol. 169:2132-2136 (1987)). Briefly, a filter disk containing 0.38 μmoles of the toxic compound was placed on a lawn containing 5×10^6 cells and the plate incubated at 30° C. for 1 to 2 days. Resulting halos were measured across their diameter. The toxic dipeptides Leu-Eth, Ala-Eth, Leu-F-Phe and Oxalysine were synthesized by standard solution phase techniques (Naider, F. et al., J. Biol. Chem. 249:9-20 (1974). The results of this experiment are shown in Table 2 (values are the mean of the diameters of the observed zone of inhibition in millimeters±standard error of the mean of at least two independent experiments).

[5] = test system: PB1X-9B (pPTF4); test: Toxic peptide disk assay, mutant with plant gene ATPTR2A; type: cell-based, Saccharomyces cerevisiae; conditions: for diameter of zone of inhibition: disk with 0.38 μmoles, lawn of 5×10^6 cells, 30° C., 1 to 2 days, mean ± standard error
Procedure: as §3

[6] = test system: PB1X-9B (pJP9); test: Toxic peptide disk assay, mutant with yeast peptide transport gene; type: cell-based, Saccharomyces cerevisiae; conditions: for diameter of zone of inhibition: disk with 0.38 μmoles, lawn of 5×10^6 cells, 30° C., 1 to 2 days, mean ± standard error
Procedure: as §3

[7] = test system: S. cerevisiae strains tested; test: Toxic peptide disk assay, statements covering several strains; type: cell-based, Saccharomyces cerevisiae; conditions: wild type (S288C) and transformants
Procedure: as §3

[8] = test system: A. thaliana seeds; test: Seed germination with toxic peptides (minimum inhibitory concentration); type: in vivo, Arabidopsis thaliana
Procedure: (§4) Thus, A. thaliana seeds and seedlings were exposed to Ethionine, Ala-Eth, Leu-Eth, Leu-fluorophenylalanine or oxalysine containing peptides, and the minimum inhibitory concentrations (MIC) were determined for each of the toxic compounds.
To measure the minimum inhibitory concentration of the toxic peptides, 10 to 15 A. thaliara seeds were place on solid Arabidopsis growth media with decreasing concentrations of toxic peptide. The seeds were incubated for 4 days in the dark and then scored for germination.

[9] = test system: S288C; test: Toxic peptide disk assay, wild type; type: cell-based, Saccharomyces cerevisiae; conditions: for diameter of zone of inhibition: disk with 0.38 μmoles, lawn of 5×10^6 cells, 30° C., 1 to 2 days, mean ± standard error
Procedure: as §3

[10] = test system: PB1X-9B(pJP2); test: Dipeptide utilization, L-alanyl-L-ethionine sensitivity and dileucine transport of secondary transformants; type: cell-based, Saccharomyces cerevisiae; conditions: compared with wild type
Procedure: Plasmid pJP2 was then reintroduced into PB1X-9B. The resulting secondary yeast transformants were tested for the ability to use a variety of dipeptides as sources of amino acids and for sensitivity to the toxic dipeptide L-alanyl-L-ethionine. Thus, strains were grown in YEPG broth at 30° C. to a titer of 10^8 cells per ml. The cells were harvested by centrifugation, washed twice with sterile water and resuspended at 1.0×10^7 cells per ml. A 5-μl aliquot was applied to solid MM containing dipeptides and amino acids as required. Four types of solid media were routinely used in assessing dipeptide utilization: MM+L-leucyl-L-leucine-L-lysine+L-histidine, MM-L-lysI-L-lysine-L-leucine-L-histidine (SEQ ID NO:12), MM-L-lysl-L-leucine-L-histidine, and MM-L-histydyl-L-leucine-L-lysine. All dipeptides were present at a concentration of 80 μM, while amino acids and nucleotide bases were added as required at standard concentrations (Sherman, F. et al., In: Methods in Yeast Genetics, Cold Spring Harbor Laboratory, Clod Spring Harbor, N.Y. (1986)). The plates were incubated at 30° C. for 48 hours and then scored for growth.

[11] = test system: A. thaliana seedlings; test: Root elongation of seedlings exposed to toxic peptides; type: in vivo, Arabidopsis thaliana
Procedure: as §4, §2

[12] = target: T2, Lys-Leu-Leu-Ala-Eth; test: cell-based or functional assay
T2 peptide: KLLA-Eth

[13] = target: T3, Lys-Leu-Leu-Leu-Eth; test: cell-based or functional assay
T3 peptide: KLLL-Eth

[14] = target: Leu-F-Phe
[15] = target: Leu-Eth
[16] = target: Lys-Leu-Eth
[17] = target: Lys-Leu-Leu-Eth
[18] = target: Lys-Ala-Eth
[19] = target: L-alanyl-L-ethionine
[20] = target: Lys-Leu-Ala-Eth

competition for uptake of [3H]-dileucine [2]: able to compete
Molecule: NCC(=O)CCC(=O)O [ALA, γ-aminolevulinic acid]
competition for uptake of [3H]-dileucine [1]: lack of inhibition
competition for uptake of [3H]-dileucine ([1]; listed as γ-aminolevulinic acid): did not compete
reversal of toxicity by competitor (in words) ([3]; toxic peptide Ala-Eth): unable to reverse the inhibition
root growth with toxic peptide plus competitor ([3]; toxic peptide Ala-Eth): 0 percentage of control root gro
reversal of toxicity by competitor (in words) ([3]; toxic peptide Leu-Eth): unable to reverse the inhibition
root growth with toxic peptide plus competitor ([3]; toxic peptide Leu-Eth): 0 percentage of control root gro

Molecule: CCSCC[C@H](N)C(=O)O [Eth, ethionine]
sensitivity or resistance to toxic compound [4]: sensitive
diameter of zone of inhibition ([4]; disk with 0.38 μmoles, lawn of 5×10^6 cells, 30° C., 1 to 2 days, mean ± standard error): 44.5 ± 3.5 millimeters
sensitivity or resistance to toxic compound [5]: sensitive
diameter of zone of inhibition [5]: 46.5 ± 0.5 millimeters
diameter of zone of inhibition [6]: 46.5 ± 1.5 millimeters
sensitivity to toxic compound [7]: most sensitive
root length at which growth was arrested ([8]; seeds exposed to the toxic compound): 1-2 mm
diameter of zone of inhibition [9]: 39.0 ± 3.0 millimeters

Molecule: L-leucyl-L [^3 H]leucine trifluoroacetic acid (TFA) [[H^3]-dileucine]
uptake of radiolabeled dileucine ([1]; listed as radiolabeled dileucine): comparable to that of wild type
uptake of radiolabeled dileucine [1]: wild-type levels
transport of radiolabeled dileucine [10]: levels approximating those of the wild type

Molecule: Leu-fluorophenylalanine [Leu-F-Phe]
sensitivity or resistance to toxic compound [5]: restores sensitivity
diameter of zone of inhibition [5]: 37.0 ± 1.0 millimeters
sensitivity or resistance to toxic compound ([5]; listed as leucine-fluorophenylaianine): greater and more complete sensitivity
appearance of halo [6]: hazy background within the halo
diameter of zone of inhibition [6]: 20.5 ± 3.0 millimeters
sensitivity to toxic compound [7]: less sensitive
amount that inhibits root elongation of seedlings [11]: not inhibited
amount that inhibits germination of seeds ([8]; A. thaliana seeds): not inhibited
appearance of halo [9]: hazy background within the halo
diameter of zone of inhibition [9]: 28.0 ± 4.0 millimeters

Molecule: tri-Ala: competitor tripeptide
competition for uptake of [3H]-dileucine [1]: uptake competition similar to that seen for Leu-Leu
competition for uptake of [3H]-dileucine [2]: uptake competition similar to that seen for Leu-Leu
reversal of toxicity by competitor (in words) ([3]; toxic peptide Ala-Eth): unable to reverse the inhibition
root growth with toxic peptide plus competitor ([3]; toxic peptide Ala-Eth): 0 percentage of control root gro
reversal of toxicity by competitor (in words) ([3]; toxic peptide Leu-Eth): unable to reverse the inhibition

diameter of the zone of inhibition, disk assay with 0.38 µmoles [12]: 0 mm
diameter of the zone of inhibition, disk assay with 0.38 µmoles [13]: 0 mm
diameter of the zone of inhibition, disk assay with 0.38 µmoles [14]: 20.5 mm
diameter of the zone of inhibition, disk assay with 0.38 µmoles [15]: 47 mm
diameter of the zone of inhibition, disk assay with 0.38 µmoles [16]: 36 mm
diameter of the zone of inhibition, disk assay with 0.38 µmoles [17]: 0 mm
diameter of the zone of inhibition, disk assay with 0.38 µmoles [18]: 36 mm
diameter of the zone of inhibition, disk assay with 0.38 µmoles [19]: 42.5 mm
diameter of the zone of inhibition, disk assay with 0.38 µmoles [20]: 0 mm
B1: yeast peptide transporter SACPTR2p (other)
chain: T1 sequence (P32901 1-601)

— patent US6080542A, “Plant peptide transport gene” (priority 1997, dated 2000)
